Reference: ChEMBL document CHEMBL1150281, “Oleanane-type triterpenes from the flowers and roots of Saussurea muliensis” (2008)

Columns and labels:
Assay type in all cases: functional
Candida albicans = test: Antimicrobial activity against Candida albicans
Bacillus cereus = test: Antimicrobial activity against Bacillus cereus
Escherichia coli = test: Antimicrobial activity against Escherichia coli ATCC 25922
Staphylococcus aureus = test: Antimicrobial activity against Staphylococcus aureus ATCC 25923

Compound | MIC (Candida albicans) | MIC (Bacillus cereus) | MIC (Escherichia coli) | MIC (Staphylococcus aureus)
CC1(C)[C@@H](O)CC[C@]2(C)[C@H]3CC=C4[C@@H]5C[C@@](C)(C(=O)O)C[C@H](O)[C@]5(C)CC[C@@]4(C)[C@]3(C)CC[C@@H]12 | > 50 µg/mL | > 50 µg/mL | > 50 µg/mL | > 50 µg/mL
CC1(C)[C@H](OC(=O)/C=C/c2ccc(O)cc2)CC[C@]2(C)[C@H]3CC=C4[C@@H]5C[C@@](C)(C(=O)O)CC[C@]5(C)CC[C@@]4(C)[C@]3(C)CC[C@@H]12 | > 50 µg/mL | > 50 µg/mL | > 50 µg/mL | > 50 µg/mL
CO[C@]1(CO)C[C@H]2C3=CC[C@@H]4[C@@]5(C)CC[C@@H](OC(C)=O)C(C)(C)[C@@H]5CC[C@@]4(C)[C@]3(C)CC[C@@]2(C)[C@@H](OC(C)=O)[C@H]1O | > 50 µg/mL | > 50 µg/mL | > 50 µg/mL | > 50 µg/mL

More lines, now with the values ahead:

MIC (Candida albicans) | MIC (Bacillus cereus) | MIC (Escherichia coli) | MIC (Staphylococcus aureus) | Compound
> 50 µg/mL | > 50 µg/mL | > 50 µg/mL | > 50 µg/mL | CC(=O)O[C@@H]1CC[C@]2(C)[C@H]3CC=C4[C@@H]5C[C@](O)(CO)[C@H](O)[C@H](OC(C)=O)[C@]5(C)CC[C@@]4(C)[C@]3(C)CC[C@H]2C1(C)C
> 50 µg/mL | > 50 µg/mL | > 50 µg/mL | > 50 µg/mL | CC1(C)[C@H](OC(=O)/C=C/c2ccc(O)c(O)c2)CC[C@]2(C)[C@H]3CC=C4[C@@H]5C[C@@](C)(C(=O)O)CC[C@]5(C)CC[C@@]4(C)[C@]3(C)CC[C@@H]12
> 50 µg/mL | > 50 µg/mL | > 50 µg/mL | > 50 µg/mL | CCCCCCCCCCCCCCCC(=O)OC[C@@]1(O)C[C@H]2C3=CC[C@@H]4[C@@]5(C)CC[C@@H](OC(C)=O)C(C)(C)[C@@H]5CC[C@@]4(C)[C@]3(C)CC[C@@]2(C)[C@@H](OC(C)=O)[C@H]1O
